Source: patent US20060068444A1, “Compositions and methods for detecting cyclic analogs of hPTH” (Zelos Therapeutics, Inc, priority 2004, published 2006)
Positions of bridges follow the written chain, without caps; N, C: chain ends. No end group written: not given here.

Key:
[1] = test system: antibodies which have binding specificity for cyclic analogs of hPTH (HRP-labeled anti-C-terminal antibody plus biotinylated anti-N-terminal antibody); assay: two-site sandwich ELISA for [Leu^27]cyclo(Glu^22-Lys^26)hPTH-(1-31); design: species or system rabbit; settings: for detection in the two-site sandwich ELISA (cross-reaction), OD at 450 nm: peptides at 10,000, 1,000 and 100 pg/ml in BSA based buffer matrix, FIG. 3
Method: Streptavidin was weighed and diluted to 20 mg/L with phosphate buffer, 0.2 ml of this solution was added to each well of Corning® 96 Well Polystyrene Microplate. The plates were incubated at room temperature for 18-22 hours. The plates were then washed and a stabile/blocking buffer containing BSA was added. The plates were again incubated at room temperature for four hours. The plates were finally dried at <30% humidity. […] The peptide was diluted with a bovine serum albumin and normal bovine serum based buffer matrix to a final concentration of 1600 pg/ml, 400 pg/ml, 100 pg/ml, 25 pg/ml and 6 pg/ml. […] The above antigen and antibodies were incubated in the streptavidin coated well for 3 hours at room temperature with shaking at 170 rpm. After incubation, each well was washed with an ELISA wash buffer. 200 μL of tetra methyl benzidine (TMB) was then added into each well. The wells were incubated for 20 min at room temperature and then 100 μL of a stop solution was added into each well. The Microplates were read with a microtiter plate reader (VERSAmaxTM, Molecular Device, Inc.) at an absorption wavelength of 450 nm. A standard curve was obtained by plotting the optical density (OD) at 450 nm against the correspondent Ostabolin-C standard concentration. […] The OD at 450 nm values were read by a microtiter plate reader ([…], Molecular Device, Inc.) (FIG. 3).

[2] = test system: adenylyl cyclase (AC); settings: cited from earlier work
[3] = test system: ovariectomized rat model; settings: cited from earlier work

| Substance | detection in the two-site sandwich ELISA (cross-reaction), OD at 450 nm [1] | standard curve, optical density (OD) at 450 nm against standard concentration ([1]; peptide standards 1600, 400, 100, 25 and 6 pg/ml, FIG. 2) | AC stimulating activity [2] | restoration of bone loss [3] |
| --- | --- | --- | --- | --- |
| hPTH-(1-84) | not able to detect |  |  |  |
| hPTH-(1-31) | not able to detect |  |  |  |
| hPTH-(1-31)-NH2 |  |  | has only AC stimulating activity | fully active |

Continued, in another order:

| detection in the two-site sandwich ELISA (cross-reaction), OD at 450 nm [1] | standard curve, optical density (OD) at 450 nm against standard concentration ([1]; peptide standards 1600, 400, 100, 25 and 6 pg/ml, FIG. 2) | Substance | AC stimulating activity [2] | restoration of bone loss [3] |
| --- | --- | --- | --- | --- |
| not able to detect |  | hPTH-(1-34) |  |  |
| dose responsive manner | dose responsive standard curve | [Leu^27]cyclo(Glu^22-Lys^26)hPTH-(1-31) (SVSEIQLMHNLGKHLNSMERVEWLRKLLQDV-NH2; lactam 22-26; N-terminus assumed; SMILES CC[C@H](C)[C@H](NC(=O)[C@H](CCC(=O)O)NC(=O)[C@H](CO)NC(=O)[C@@H](NC(=O)[C@@H](N)CO)C(C)C)C(=O)N[C@@H](CCC(N)=O)C(=O)N[C@@H](CC(C)C)C(=O)N[C@@H](CCSC)C(=O)N[C@@H](Cc1c[nH]cn1)C(=O)N[C@@H](CC(N)=O)C(=O)N[C@@H](CC(C)C)C(=O)NCC(=O)N[C@@H](CCCCN)C(=O)N[C@@H](Cc1c[nH]cn1)C(=O)N[C@@H](CC(C)C)C(=O)N[C@@H](CC(N)=O)C(=O)N[C@@H](CO)C(=O)N[C@@H](CCSC)C(=O)N[C@@H](CCC(=O)O)C(=O)N[C@@H](CCCNC(=N)N)C(=O)N[C@H](C(=O)N[C@H]1CCC(=O)NCCCC[C@@H](C(=O)N[C@@H](CC(C)C)C(=O)N[C@@H](CC(C)C)C(=O)N[C@@H](CCC(N)=O)C(=O)N[C@@H](CC(=O)O)C(=O)N[C@H](C(N)=O)C(C)C)NC(=O)[C@H](CCCNC(=N)N)NC(=O)[C@H](CC(C)C)NC(=O)[C@H](Cc2c[nH]c3ccccc23)NC1=O)C(C)C) [cyclic analog of hPTH, cyclized between Glu^22 and Lys^26] |  |  |
